{"source": "patent US11053204B2", "about": "“Pyrimidinyloxy benzene derivatives as herbicides” (FMC Corporation, priority 2015, dated 2021)", "format_in_all_cases": "in vivo", "key": {"[1]": {"system": "corn (Zea mays)", "experiment": "Test A postemergence, visual injury rating", "conditions": "0 is no effect, 100 is complete control", "summary_of_the_method": "(§1)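 Visual 0–100 rating (100 = complete control) taken about 10 d post-treatment relative to untreated checks. Preemergence: directed soil spray on sown loam/sand pots. Postemergence: seedlings 2–10 cm, 1–2 leaf. Non-phytotoxic solvent formulation with surfactant.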"}, "[2]": {"system": "morningglory (Ipomoea spp.)", "experiment": "Test A postemergence, visual injury rating", "conditions": "0 is no effect, 100 is complete control", "summary_of_the_method": "as §1"}, "[3]": {"system": "wheat (Triticum aestivum)", "experiment": "Test A postemergence, visual injury rating", "conditions": "0 is no effect, 100 is complete control", "summary_of_the_method": "as §1"}, "[4]": {"system": "giant foxtail (Setaria faberii)", "experiment": "Test A postemergence, visual injury rating", "conditions": "0 is no effect, 100 is complete control", "summary_of_the_method": "as §1"}, "[5]": {"system": "velvetleaf (Abutilon theophrasti)", "experiment": "Test A postemergence, visual injury rating", "conditions": "0 is no effect, 100 is complete control", "summary_of_the_method": "as §1"}, "[6]": {"system": "large (Lg) crabgrass (Digitaria sanguinalis)", "experiment": "Test A postemergence, visual injury rating", "conditions": "0 is no effect, 100 is complete control", "summary_of_the_method": "as §1"}, "[7]": {"system": "barnyardgrass (Echinochloa crus-galli)", "experiment": "Test A postemergence, visual injury rating", "conditions": "0 is no effect, 100 is complete control", "summary_of_the_method": "as §1"}, "[8]": {"system": "pigweed (Amaranthus retroflexus)", "experiment": "Test A postemergence, visual injury rating", "conditions": "0 is no effect, 100 is complete control", "summary_of_the_method": "as §1"}, "[9]": {"system": "corn (Zea mays)", "experiment": "Test A preemergence, visual injury rating", "conditions": "0 to 100 scale (0 no effect, 100 complete control)", "summary_of_the_method": "as §1"}, "[10]": {"system": "morningglory (Ipomoea spp.)", "experiment": "Test A preemergence, visual injury rating", "conditions": "0 to 100 scale (0 no effect, 100 complete control)", "summary_of_the_method": "as §1"}, "[11]": {"system": "wheat (Triticum aestivum)", "experiment": "Test A preemergence, visual injury rating", "conditions": "0 to 100 scale (0 no effect, 100 complete control)", "summary_of_the_method": "as §1"}, "[12]": {"system": "giant foxtail (Setaria faberii)", "experiment": "Test A preemergence, visual injury rating", "conditions": "0 to 100 scale (0 no effect, 100 complete control)", "summary_of_the_method": "as §1"}, "[13]": {"system": "velvetleaf (Abutilon theophrasti)", "experiment": "Test A preemergence, visual injury rating", "conditions": "0 to 100 scale (0 no effect, 100 complete control)", "summary_of_the_method": "as §1"}, "[14]": {"system": "large (Lg) crabgrass (Digitaria sanguinalis)", "experiment": "Test A preemergence, visual injury rating", "conditions": "0 to 100 scale (0 no effect, 100 complete control)", "summary_of_the_method": "as §1"}, "[15]": {"system": "barnyardgrass (Echinochloa crus-galli)", "experiment": "Test A preemergence, visual injury rating", "conditions": "0 to 100 scale (0 no effect, 100 complete control)", "summary_of_the_method": "as §1"}, "[16]": {"system": "pigweed (Amaranthus retroflexus)", "experiment": "Test A preemergence, visual injury rating", "conditions": "0 to 100 scale (0 no effect, 100 complete control)", "summary_of_the_method": "as §1"}, "[17]": {"system": "rice (Oryza sativa)", "experiment": "Test B flooded paddy test, plant response rating", "conditions": "250 g ai/ha; Flood; scale of 0 to 100 where 0 is no effect and 100 is complete control; 13 to 15 days", "summary_of_the_method": "(§2)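 Compound was added to standing water 3 cm above soil, flood maintained, and plants held in a greenhouse before visual scoring against controls at 13 to 15 days.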"}, "[18]": {"system": "ducksalad (Heteranthera limosa)", "experiment": "Test B flooded paddy test, plant response rating", "conditions": "250 g ai/ha; Flood; scale of 0 to 100 where 0 is no effect and 100 is complete control; 13 to 15 days", "summary_of_the_method": "as §2"}, "[19]": {"system": "sedge, umbrella (small-flower umbrella sedge, Cyperus difformis)", "experiment": "Test B flooded paddy test, plant response rating", "conditions": "250 g ai/ha; Flood; scale of 0 to 100 where 0 is no effect and 100 is complete control; 13 to 15 days", "summary_of_the_method": "as §2"}, "[20]": {"system": "barnyardgrass (Echinochloa crus-galli)", "experiment": "Test B flooded paddy test, plant response rating", "conditions": "250 g ai/ha; Flood; scale of 0 to 100 where 0 is no effect and 100 is complete control; 13 to 15 days", "summary_of_the_method": "as §2"}}, "data": [{"smiles": "O=C(NCC(F)(F)F)c1ccccc1Oc1ncc(Cl)cn1", "note": "[Compound 28, 2-[(5-chloro-2-pyrimidinyl)oxy]-N-(2,2,2-trifluoroethyl)benzamide]", "values": [{"measurement": "plant injury at 500 g/ha", "setting": "[1]; Zea mays, post-emergence, 240 h, 500 g ai/ha, read-out: Corn plant response rating (0 to 100 scale)", "value": 0, "unit": "%"}, {"measurement": "Morningglory plant response rating (0 to 100 scale)", "setting": "[2]; 500 g ai/ha", "value": 0}, {"measurement": "plant injury at 500 g/ha", "setting": "[3]; Triticum aestivum, post-emergence, 240 h, 500 g ai/ha, read-out: Wheat plant response rating (0 to 100 scale)", "value": 0, "unit": "%"}, {"measurement": "pest or weed control at 500 g/ha", "setting": "[4]; Setaria faberi, post-emergence, 240 h, 500 g ai/ha, read-out: Foxtail, Giant plant response rating (0 to 100 scale)", "value": 0, "unit": "%"}, {"measurement": "Velvetleaf plant response rating (0 to 100 scale)", "setting": "[5]; 500 g ai/ha", "value": 30}, {"measurement": "Crabgrass, Large plant response rating (0 to 100 scale)", "setting": "[6]; 500 g ai/ha", "value": 0}, {"measurement": "pest or weed control at 500 g/ha", "setting": "[7]; Echinochloa crus-galli, post-emergence, 240 h, 500 g ai/ha, read-out: Barnyardgrass plant response rating (0 to 100 scale)", "value": 20, "unit": "%"}, {"measurement": "pest or weed control at 500 g/ha", "setting": "[8]; Amaranthus retroflexus, post-emergence, 240 h, 500 g ai/ha, read-out: Pigweed plant response rating (0 to 100 scale)", "value": 20, "unit": "%"}, {"measurement": "Corn plant response rating", "setting": "[9]; 500 g ai/ha", "value": 0}, {"measurement": "Morningglory plant response rating", "setting": "[10]; 500 g ai/ha", "value": 0}, {"measurement": "Wheat plant response rating", "setting": "[11]; 500 g ai/ha", "value": 0}, {"measurement": "pest or weed control at 500 g/ha", "setting": "[12]; Setaria faberi, pre-emergence, 240 h, 500 g ai/ha, read-out: Foxtail, Giant plant response rating", "value": 20, "unit": "%"}, {"measurement": "Velvetleaf plant response rating", "setting": "[13]; 500 g ai/ha", "value": 20}, {"measurement": "Crabgrass, Large plant response rating", "setting": "[14]; 500 g ai/ha", "value": 50}, {"measurement": "pest or weed control at 500 g/ha", "setting": "[15]; Echinochloa crus-galli, pre-emergence, 240 h, 500 g ai/ha, read-out: Barnyardgrass plant response rating", "value": 20, "unit": "%"}, {"measurement": "pest or weed control at 500 g/ha", "setting": "[16]; Amaranthus retroflexus, pre-emergence, 240 h, 500 g ai/ha, read-out: Pigweed plant response rating", "value": 80, "unit": "%"}]}, {"smiles": "CC(=NOCc1ccccc1)c1ccccc1Oc1ncc(Cl)cn1", "note": "[Compound 58]", "values": [{"measurement": "Corn plant response rating (0 to 100 scale)", "setting": "[1]; 1000 g ai/ha", "value": 30}, {"measurement": "Morningglory plant response rating (0 to 100 scale)", "setting": "[2]; 1000 g ai/ha", "value": 30}, {"measurement": "Wheat plant response rating (0 to 100 scale)", "setting": "[3]; 1000 g ai/ha", "value": 20}, {"measurement": "Foxtail, Giant plant response rating (0 to 100 scale)", "setting": "[4]; 1000 g ai/ha", "value": 60}, {"measurement": "Velvetleaf plant response rating (0 to 100 scale)", "setting": "[5]; 1000 g ai/ha", "value": 90}, {"measurement": "Crabgrass, Large plant response rating (0 to 100 scale)", "setting": "[6]; 1000 g ai/ha", "value": 80}, {"measurement": "Barnyardgrass plant response rating (0 to 100 scale)", "setting": "[7]; 1000 g ai/ha", "value": 40}, {"measurement": "Pigweed plant response rating (0 to 100 scale)", "setting": "[8]; 1000 g ai/ha", "value": 100}, {"measurement": "Corn plant response rating", "setting": "[9]; 1000 g ai/ha", "value": 20}, {"measurement": "Morningglory plant response rating", "setting": "[10]; 1000 g ai/ha", "value": 0}, {"measurement": "Wheat plant response rating", "setting": "[11]; 1000 g ai/ha", "value": 20}, {"measurement": "Foxtail, Giant plant response rating", "setting": "[12]; 1000 g ai/ha", "value": 100}, {"measurement": "Velvetleaf plant response rating", "setting": "[13]; 1000 g ai/ha", "value": 20}, {"measurement": "Crabgrass, Large plant response rating", "setting": "[14]; 1000 g ai/ha", "value": 100}, {"measurement": "Barnyardgrass plant response rating", "setting": "[15]; 1000 g ai/ha", "value": 90}, {"measurement": "Pigweed plant response rating", "setting": "[16]; 1000 g ai/ha", "value": 50}, {"measurement": "Plant response rating, Rice", "setting": "[17]", "value": 0}, {"measurement": "Plant response rating, Ducksalad", "setting": "[18]", "value": 0}, {"measurement": "Plant response rating, Sedge, Umbrella", "setting": "[19]", "value": 0}, {"measurement": "Plant response rating, Barnyardgrass", "setting": "[20]", "value": 0}]}]}
